Measurements published in ChEMBL document CHEMBL4229326, “Modulators of 14-3-3 Protein-Protein Interactions” (J Med Chem, 2018).

Columns and labels:
[1] = target: Potassium channel subfamily K member 9 (Homo sapiens) (UniProt Q9NPC2); test: Stabilization of human HA-tagged TASK-3 interaction with 14-3-3 in Xenopus laevis oocytes assessed as increase of TASK-3 expression in plasma membrane at 10 uM by antibody-based luminometric assay relative to control; type: cell-based
[2] = target: T1, 14-3-3 protein zeta/delta (Homo sapiens, UniProt P63104); test: Binding affinity to recombinant human His-tagged 14-3-3zeta expressed in Escherichia coli K12 by ITC method
T1 sequence (P63104 whole entry): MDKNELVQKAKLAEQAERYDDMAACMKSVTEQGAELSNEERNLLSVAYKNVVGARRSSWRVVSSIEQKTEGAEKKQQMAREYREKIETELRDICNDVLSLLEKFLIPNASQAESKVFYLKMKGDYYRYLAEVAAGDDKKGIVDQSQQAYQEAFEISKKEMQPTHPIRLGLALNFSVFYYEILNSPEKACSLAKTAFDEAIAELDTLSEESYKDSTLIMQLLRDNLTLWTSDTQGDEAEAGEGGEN

14-3-3 protein sigma = target: T2, 14-3-3 protein sigma (Homo sapiens, UniProt P31947); test: Inhibition of TMR-GG-RLSHpSSLPG-NH2 binding to recombinant human GST-tagged 14-3-3-sigma preincubated for 30 mins followed by TMR-GG-RLSHpSSLPG-NH2 addition and measured after 60 mins by fluorescence polarization assay
T2 sequence (P31947 whole entry): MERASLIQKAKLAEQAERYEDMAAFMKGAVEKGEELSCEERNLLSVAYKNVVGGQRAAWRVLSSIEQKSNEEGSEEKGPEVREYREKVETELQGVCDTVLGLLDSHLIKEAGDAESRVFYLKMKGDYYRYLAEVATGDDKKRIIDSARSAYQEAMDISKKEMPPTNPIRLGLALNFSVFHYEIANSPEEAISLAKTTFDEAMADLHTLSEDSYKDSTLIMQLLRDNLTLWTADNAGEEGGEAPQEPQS

DG-75 = test: Growth inhibition of human DG75 cells after 48 hrs by trypan blue exclusion method; type: functional, cell-based; conditions: DG-75, 48 h
[3] = target: T1, 14-3-3 protein zeta/delta; test: Binding affinity to human full length 14-3-3zeta by fluorescence polarization assay
14-3-3 protein gamma = target: T3, 14-3-3 protein gamma (Homo sapiens, UniProt P61981); test: Binding affinity to GST-tagged 14-3-3-gamma (unknown origin) expressed in Escherichia coli BL21(DE3) assessed as inhibition of interaction with PRAS40 in African green monkey COS7 cells preincubated with protein followed by cell addition by ELISA
T3 sequence (P61981 whole entry): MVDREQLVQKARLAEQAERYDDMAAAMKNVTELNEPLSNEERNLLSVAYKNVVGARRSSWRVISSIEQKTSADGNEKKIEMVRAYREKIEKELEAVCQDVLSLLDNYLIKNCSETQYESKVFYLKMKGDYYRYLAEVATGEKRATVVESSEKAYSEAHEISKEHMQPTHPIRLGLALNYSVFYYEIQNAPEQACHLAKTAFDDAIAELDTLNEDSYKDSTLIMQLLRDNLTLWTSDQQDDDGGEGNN

Potassium channel subfamily K member 9 (Homo sapiens), sequence (Q9NPC2 whole entry): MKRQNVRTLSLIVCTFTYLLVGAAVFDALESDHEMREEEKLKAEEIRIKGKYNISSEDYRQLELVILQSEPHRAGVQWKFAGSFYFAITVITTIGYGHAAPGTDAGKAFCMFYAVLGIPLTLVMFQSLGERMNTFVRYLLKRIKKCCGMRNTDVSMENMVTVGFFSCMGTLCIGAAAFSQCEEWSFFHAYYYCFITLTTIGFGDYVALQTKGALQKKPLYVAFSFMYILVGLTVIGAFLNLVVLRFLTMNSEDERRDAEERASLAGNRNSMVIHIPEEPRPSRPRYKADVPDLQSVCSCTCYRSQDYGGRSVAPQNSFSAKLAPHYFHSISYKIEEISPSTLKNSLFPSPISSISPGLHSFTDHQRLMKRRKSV

Row | Compound | IC50 (14-3-3 protein sigma) | other results
1 | COC[C@H]1CC[C@@H]2/C1=C\[C@]1(C)C(=C(C(C)C)[C@@H]3CCO[C@@H]31)[C@@H](O[C@H]1C[C@@H]3COC(C)(C)O[C@H]3[C@H](O)[C@H]1O)[C@H](O)[C@@H]2C |  | Activity [1]: 45%
2 | COC[C@H]1CC[C@@H]2/C1=C\[C@]1(C)C(=C([C@H](C)COC(C)=O)CC1OCc1ccccc1/C=N/OC[C@@H](NC(=O)[C@H](CC(=O)O)NC(=O)[C@H](Cc1ccc(O)cc1)NC(=O)[C@H](CO)NC(=O)[C@H](CCC(N)=O)NC(=O)CNS(=O)(=O)c1cccc3c(N(C)C)cccc13)C(C)C)[C@@H](O)[C@H](O)[C@@H]2C (stereo not given in full) |  | Kd [2]: 0.37 µM
3 | O=C(CNC(=O)c1ccc(CCl)cc1)N[C@@H](COP(=O)(O)O)C(=O)NCCc1ccc(O)cc1 | 2.6 to 3.6 µM | 
4 | CC(C)=CC(=O)N[C@@H](COP(=O)(O)O)C(=O)NCCc1ccc(O)cc1 | 2.6 to 3.6 µM | 
5 | O=C(CNC(=O)c1ccc(CCl)cc1)N[C@@H](COP(=O)(O)O)C(=O)NCc1ccc2c(c1)OCO2 | 2.6 to 3.6 µM | 
6 | CN(CCCCCl)P(=O)(OCc1ccc([N+](=O)[O-])o1)C(F)(F)C[C@H](NC(=O)CNC(=O)c1ccc(N)cc1)C(=O)NCCc1ccc(O)cc1 (stereo not given in full) |  | IC50 (DG-75): 5 µM
7 | CC(C)C[C@H](NC(=O)[C@H](CC(=O)O)NC(=O)[C@]1(C)CCCCCCCCCCCC[C@](C)(NC(=O)CNC(=O)[C@@H](N)CCC(N)=O)C(=O)N[C@@H](CC(C)C)C(=O)N[C@@H](CC(=O)O)C(=O)N[C@@H](C)C(=O)N1)C(=O)N[C@@H](C)C(=O)N[C@@H](CO)C(=O)O |  | Kd [3]: 0.041 µM
8 | CC(C)=CC(=O)N[C@@H](COP(=O)(O)O)C(=O)NCc1ccc2c(c1)OCO2 | 2.6 to 3.6 µM | 
9 | Cc1nc(/N=N/c2ccc(C(=O)O)cc2)c(COP(=O)(O)O)c(C=O)c1O |  | IC50 (14-3-3 protein gamma): 16.4 µM
10 | [N-]=[N+]=Nc1ccc(C(=O)NCC(=O)N[C@@H](COP(=O)(O)O)C(=O)NCCc2ccc(O)cc2)cc1 | 2.6 to 3.6 µM | 
